Source: PMC12935787, “Clinical pharmacokinetics and pharmacometabolomics of Andrographis paniculata capsules: Bridging drug disposition and metabolic response to precision medicine” (Naunyn-Schmiedeberg's Archives of Pharmacology, 2025)

What was measured:
[1] = system: Human metabolic pathways (KEGG); assay: Urine pharmacometabolomics, peaks-to-pathway mummichog analysis; type: in vivo, human (healthy volunteers); settings: urinary PMx analysis, 1000 mg and 2000 mg AP (either dose)
Procedure: The protocol was published (Tee et al. [2022]).
Plasma samples (blank and subject) were thawed from −80 °C and processed using cold protein precipitation (200 μL plasma + 600 μL acetone:acetonitrile:methanol [1:1:1]). After −20 °C incubation (1 h) and centrifugation (10,000 rpm, 4 °C, 10 min), supernatants were filtered (0.22 μm) into LC–MS vials. System suitability test using vendor-provided internal standards ensured instrument performance parameters met acceptance criteria prior to metabolomics analysis. Samples (plasma and urine) were prepared in four batches. Each batch was analyzed separately in positive and negative ionization modes using a global metabolomics approach, resulting in eight analytical batches. Each analytical batch commenced with blank water, blank water spiked with internal standard (IS), and blank plasma or urine (with and without IS), all meeting the acceptance criteria in Figure S6 and Figure S7. Five pooled quality control (PQC) samples were analyzed at batch start, with additional PQCs interspersed after every fourth subject sample to monitor LC–MS system stability. Chromatogram overlays of all PQCs for every batch were assessed for consistency and instrument stability. Overlays of PQCs with subject samples were also evaluated in Figure S8. All eight batches met predefined acceptance criteria prior to data processing.
Dose-dependent PMx analyses compared pre-dose (T0) with post-dose time points (T2.5, T3, T3.5) for plasma and pre-dose (U0) with post-dose intervals (0–4 h [U1], 4–8 h [U2], 8–12 h [U3]) for urine, using positive and negative ion mode acquisition.
PCA results for pre- and post-dose urine samples were obtained by performing similar statistical and multivariate analyses of metabolite data (Figure S5). Batch effects were not observed in the normalized datasets for both positive and negative modes at either dose. All urine samples were successfully analyzed, except for samples U13 and U14 for the 1000 mg AP dose in positive mode, which were not captured due to a power supply issue with the LC–MS during the analysis.

[2] = parameters: method as in Songvut et al. [2023b]; settings: ref Songvut et al. [2023b], cited from earlier work; for Cmax, previously reported / Tmax, previously reported: AP dose corresponding to 60 mg of andrographolide

free compound detected in urine [1] | SMILES | Cmax, previously reported [2] [ng/mL] | Tmax, previously reported [2] [min] | tolerance in human PK studies [2] [mg/day]
detected no free | C=C1CC[C@@H]2[C@](C)(CO)[C@H](O)CC[C@@]2(C)[C@@H]1C/C=C1/C(=O)OC[C@H]1O [andrographolide] | 72.1 ± 28.7 | 48 | 180 to 360
detected no free | C=C1CC[C@@H]2[C@](C)(CO[C@@H]3O[C@H](CO)[C@@H](O)[C@H](O)[C@H]3O)CCC[C@@]2(C)[C@@H]1CCC1=CCOC1=O [neoandrographolide] | 24.4 ± 5.6 | 54 | –
detected no free | C=C1CC[C@@H]2[C@](C)(CO)[C@H](O)CC[C@@]2(C)[C@@H]1CCC1=CCOC1=O [14-deoxyandrographolide] | 4.2 ± 3.4 | 60 | –
